# Data from US20080260896A1 (priority 2007, published 2008).
# Read-outs that look alike come from different tables or passages of the source. Marks after values point to notes of the source that are not given here.
# How the values were obtained:
# [1] = Glycerin as feed ingredient for lactating dairy cattle; format: in vivo, lactating Holstein cows; settings: for Estimated Net Energy for Lactation (of the entire diet): calculated from energy output in milk and body weight increase
# Procedure: In another embodiment, an evaluation was conducted to assess practical energy value of using glycerin as a feed ingredient for lactating dairy cattle. […] Diets were balanced to meet energy requirements based on the control diet, be isonitrogenous, and balanced to meet or exceed requirements for all other nutrients. The basal ration contained corn silage, alfalfa haylage, hay, high-moisture corn, vitamins, and minerals, and was formulated to contain about 17% CP, 6.5% RUP, and 10.5 RDP (DM basis).
# [2] = Methanol concentration of stored crude glycerin; format: physicochemical; settings: stored in sealed totes approximately 5 months, analyzed in duplicate; certificate of analysis 800 ppm
# Excerpt: A subset of ten cattle (5 from each treatment) were used for baseline and withdrawal sampling of rumen fluid and blood plasma for residual methanol quantification. […] Withdrawal samples were collected from the same subset of animals.
# [3] = Crude glycerin as an energy source in swine nursery diets; format: in vivo; settings: nursery pigs
# Procedure: In yet another embodiment, crude glycerin was evaluated as an energy source in swine nursery diets. A total of 165 pigs (Monsanto Choice Genetics, EB x GP37; initial weight: 7.14 kg) were used to determine the effect of […] on performance of nursery pigs. Pigs were blocked by initial weight to one of five dietary treatments with seven pens per treatment and four or five pigs per pen. […] The basal diets were close to a typical corn-SBM diet with no animal fat added. […] Dietary protein, lysine (amino acid ratios), major minerals, and vitamins were equal across treatments within each phase. […] Dietary lysine levels were high enough to […] to observe energy effect. Feeding programs of Momentum grind-mix option (15-25, 25-35 and 35-50 lbs. BW) was the base program. The trial had four phases with 7, 7, 7, and 9 days, respectively. Before the pigs started the trial, the pigs were fed a common diet until the pigs weighed about 15.5 pounds. Medication choice for diets in this embodiment was Carbadox. The assumed ME value for crude glycerin was based on preliminary research data from Europe. […] Feed efficiency data was regressed against daily ME intake to estimate ME content for crude glycerin. […] The crude glycerin's energy value should be similar to or lower than corn.
# [4] = Lactating Holstein cows fed heat stress product with and without glycerin; format: in vivo; settings: heat stress product + 454 g/d glycerin
# Excerpt: Forty-eight lactating Holstein cows (twelve per treatment) were used in a randomized complete block design to determine the effect of feed additives on production efficiency. […] Treatments 2 and 4 will be the focus of this example. Diets were corn silage based and formulated to be iso-nitrogenous. Cows were housed in a free-stall barn with access to individual stalls. Training for Calan door use was initiated in mid-May, the standardization period occurred in early June and the treatment period started in late June and continued through early August. Feed was mixed and delivered once daily and fed behind electronic Calan doors, allowing individual intake to be determined. Ad libitum intakes were adjusted to achieve orts of 7-10% daily. Cows were milked twice daily at 0400 and 1500. Feed intake, milk yield and composition, body temperature, and body weight changes were monitored.
# [5] = lambs
# Excerpt: Lambs received a common receiving ration for one week prior to allotment. Lambs were blocked by weight (4 blocks) and fed in individual crates for […]. […] Initial and final weights were collected on consecutive days and an interim weight was taken on day 14. Periods were: 1) days 1 to 14, 2) days 15 to 29, and 3) cumulative (days 1 to 29).
# [6] = Crude glycerin as pellet binder: pellet mill current usage and pellet durability index (PDI); format: physicochemical
# Excerpt: In this embodiment, the crude glycerin [FROM SHEET WHEN GET FROM NEIL] […] Two corn/soy diets, one with low fat and one with high fat, and two high fiber diets, one with low fat and one with high fat, were formulated to provide the four treatment groups. […] Table 1 references diet formulations tested. The “HFP” referred to in Table 1 refers to a High Fat Product available from Archer Daniels Midland Company, Decatur, Ill. […] [table]
smiles,measurement,setting,value
"OCC(O)CO [crude glycerin, glycerin]",Body Weight change,[1]; 5% glycerin fed (DM basis),89.6^ab lbs.
same,Body condition score change,[1]; 5% glycerin fed (DM basis),0.1
same,Feed intake,[1]; 5% glycerin fed (DM basis),53.9 lb/day
same,Milk production,[1]; 5% glycerin fed (DM basis),81.2 lb/day
same,Milk urea Nitrogen,[1]; 5% glycerin fed (DM basis),10.9^b mg/dl
same,Somatic Cell Count,[1]; 5% glycerin fed (DM basis),490 1000 cells/ml
same,Estimated Net Energy for Lactation (of the entire diet),[1]; 5% glycerin fed (DM basis),1.55 mcal/kg
same,Body Weight change,[1]; 10% glycerin fed (DM basis),109.3^b lbs.
same,Body condition score change,[1]; 10% glycerin fed (DM basis),0.1
same,Feed intake,[1]; 10% glycerin fed (DM basis),54.1 lb/day
same,Milk production,[1]; 10% glycerin fed (DM basis),82.1 lb/day
same,Milk urea Nitrogen,[1]; 10% glycerin fed (DM basis),10.7^b mg/dl
same,Somatic Cell Count,[1]; 10% glycerin fed (DM basis),137 1000 cells/ml
same,Estimated Net Energy for Lactation (of the entire diet),[1]; 10% glycerin fed (DM basis),1.57 mcal/kg
same,Body Weight change,[1]; 15% glycerin fed (DM basis),113.5^b lbs.
same,Body condition score change,[1]; 15% glycerin fed (DM basis),0.1
same,Feed intake,[1]; 15% glycerin fed (DM basis),53.0 lb/day
same,Milk production,[1]; 15% glycerin fed (DM basis),80.0 lb/day
same,Milk urea Nitrogen,[1]; 15% glycerin fed (DM basis),10.2^b mg/dl
same,Somatic Cell Count,[1]; 15% glycerin fed (DM basis),144 1000 cells/ml
same,Estimated Net Energy for Lactation (of the entire diet),[1]; 15% glycerin fed (DM basis),1.58 mcal/kg
same,methanol concentration of crude glycerin samples,[2],756 ppm
same,daily gain,"[3]; phase 4, increasing dietary crude glycerin",decreased in phase 4 in a linear and quadratic manner
same,Feed intake,"[3]; phases 2, 3, 4 and cumulative phases 1-2, 1-3, 1-4, increasing dietary crude glycerin",linearly increased
same,daily gain,[3]; up to 12% crude glycerin,did not affect daily gain
same,NE Balance,[4],6.15 mcal/day
same,NE intake,[4],38.74 mcal/day
same,NE milk,[4],27.07 mcal/day
same,Body Weight change,[4]; 56 days,greater
same,Milk fat,[4]; 56 days,3.90%
same,"Milk fat, milk protein, and energy corrected milk yield",[4]; 56 days,tended greater
same,Milk production,[4]; 56 days,not affected by treatment group
same,Milk protein,[4]; 56 days,2.93%
same,Retained net energy for lactation and/or body weight gain,[4]; 56 days,significantly greater
same,Milk,"[4]; 56 days, all cows",38.53 kg/day
same,DMI,"[4]; 56 days, listed as Glycerin",23.49 kg/day
same,DMI,"[4]; 56 days, listed as glycerin",not different among treatment groups
same,"Milk, Multiparous",[4]; multiparous cows,36.63 kg/day
same,"Milk, Primiparous",[4]; primiparous cows,40.42 kg/day
same,ECM (energy corrected milk),[4]; (.3246 × kg milk) + (12.86 × kg fat) + (7.04 × kg protein),39.40 kg/day
same,BW change,[4]; difference in body weights using a weekly rolling average,0.779 kg/day
same,Final weight,[5]; 0 to 20% crude glycerin,not significantly different
same,"morbidity and mortality, treatment effects",[5]; 0 to 20% crude glycerin,treatment effects were not different
same,cumulative DMI,[5]; 5% crude glycerin,1.26 kg/day
same,cumulative DMI,[5]; 10% crude glycerin,1.21 kg/day
same,cumulative DMI,[5]; 15% crude glycerin,1.27 kg/day
same,cumulative DMI,[5]; 20% crude glycerin,1.20 kg/day
same,Cumulative ADG,"[5]; days 1 to 29, 5% crude glycerin",0.40 kg/day
same,Cumulative ADG,"[5]; days 1 to 29, 10% crude glycerin",0.36 kg/day
same,Cumulative ADG,"[5]; days 1 to 29, 15% crude glycerin",0.39 kg/day
same,Cumulative ADG,"[5]; days 1 to 29, 20% crude glycerin",0.36 kg/day
same,palatability,[5]; levels of up to 20% dry matter (DM) inclusion,not a concern
same,PDI,"[6]; Corn/Soy High Fat diet, crude glycerin 2.5%",54
same,PDI,"[6]; Corn/Soy High Fat diet, crude glycerin 5.0%",66
same,PDI,"[6]; Corn/Soy Low Fat diet, crude glycerin 2.5%",89
same,PDI,"[6]; Corn/Soy Low Fat diet, crude glycerin 5.0%",93
same,PDI,"[6]; High Fiber High Fat diet, crude glycerin 2.5%",89
same,PDI,"[6]; High Fiber High Fat diet, crude glycerin 5.0%",91
same,PDI,"[6]; High Fiber Low Fat diet, crude glycerin 2.5%",98
same,PDI,"[6]; High Fiber Low Fat diet, crude glycerin 5.0%",98
